Columns and labels:
Oryctolagus cuniculus = species on record: Oryctolagus cuniculus; assay: Phentolamine dissociation constant was evaluated in rabbit ear artery; type: functional
[1] = biological target: T1, Alpha-1A adrenergic receptor (Homo sapiens, UniProt P35348); assay: Alpha-1 adrenergic receptor agonist activity in rabbit ear artery; type: functional, tissue-based, Oryctolagus cuniculus; settings: target entry is the homologue from another species
T1 sequence (P35348 whole entry): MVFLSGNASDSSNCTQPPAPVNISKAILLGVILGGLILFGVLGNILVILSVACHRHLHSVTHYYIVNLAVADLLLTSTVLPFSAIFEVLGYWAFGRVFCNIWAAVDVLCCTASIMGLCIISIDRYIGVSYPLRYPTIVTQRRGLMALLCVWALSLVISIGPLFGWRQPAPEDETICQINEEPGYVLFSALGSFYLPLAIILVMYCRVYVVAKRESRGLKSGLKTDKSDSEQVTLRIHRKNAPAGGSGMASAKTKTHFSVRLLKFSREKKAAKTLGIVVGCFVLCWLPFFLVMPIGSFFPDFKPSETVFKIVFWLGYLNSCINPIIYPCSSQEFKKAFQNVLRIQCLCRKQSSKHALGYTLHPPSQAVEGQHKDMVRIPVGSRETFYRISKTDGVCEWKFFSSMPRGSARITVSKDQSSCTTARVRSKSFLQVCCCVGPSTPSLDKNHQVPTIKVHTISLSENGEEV

Structure (SMILES): COc1ccc(OC)c2c1CC[C@@H]1NCCCC21 (some centres undefined)
- Kb (Oryctolagus cuniculus): 14.7 nM
- EC50 [1]: 200 nM

Structure (SMILES): COc1ccc(OC)c2c1CC(N)C2
- EC50 [1]: 30000 nM

Structure (SMILES): COc1ccc(OC)c2c1C1CCC2[C@@H](N)C1 (some centres undefined)
- EC50 [1]: 30000 nM

Structure (SMILES): COc1ccc(OC)c(CCN)c1
- Kb (Oryctolagus cuniculus): 54 nM
- EC50 [1]: 11000 nM

Structure (SMILES): COc1ccc(OC)c2c1C1CCC2[C@H](N)C1 (some centres undefined)
- EC50 [1]: 30000 nM

Structure (SMILES): COc1ccc(OC)c2c1CCC(N)C2 (centres undefined)
- Kb (Oryctolagus cuniculus): 6 nM
- EC50 [1]: 120 nM

Structure (SMILES): COc1ccc(OC)c2c1CC[C@H]1NCCCC21 (some centres undefined)
- Kb (Oryctolagus cuniculus): 11 nM
- EC50 [1]: 170 nM

Structure (SMILES): COc1ccc(OC)c2c1CCNC2
- EC50 [1]: > 30000 nM

Structure (SMILES): NC1CCc2ccccc2C1 (centres undefined)
- EC50 [1]: > 30000 nM

Structure (SMILES): COc1ccc(OC)c2c1CCCC(N)C2 (centres undefined)
- Kb (Oryctolagus cuniculus): 11 nM
- EC50 [1]: 5300 nM

Structure (SMILES): COc1ccc(OC)c(C(O)C(C)N)c1 (centres undefined) [METHOXAMINE]
- Kb (Oryctolagus cuniculus): 9.8 nM
- EC50 [1]: 720 nM

Structure (SMILES): COc1ccc(OC)c2c1CC1C2[C@@H]1N (some centres undefined)
- Kb (Oryctolagus cuniculus): 8.4 nM
- EC50 [1]: 340 nM
